Assay results as given in patent US20170081300A1, “SYDNONE DERIVATIVES FOR CONJUGATION OF COMPOUNDS OF INTEREST” (UNIVERSITE DE STRASBOURG, priority 2014, published 2017).

Legend:
Type in all cases: physicochemical
[1] = Kinetic study of the coupling reaction of sydnones with cyclic alkyne BCN in PBS/DMSO (HPLC); conditions: for K (BCN), second order kinetic constant: PBS/DMSO (9:1), 100 μM sydnone, 150 μM BCN
Description: (§1) The kinetics of the coupling reaction of different sydnones with two cyclic alkynes was studied, according to the following scheme.
(§2) Reactions of sydnones with BCN (or TMTH) were carried out in PBS/DMSO (9:1) mixtures at 100 μM concentration of sydnones and 150 μM concentration of BCN using the following procedure:
(§3) To 900 μL of phosphate buffered saline (PBS, 100 mM) was added 87.5 μL of DMSO, 10 μL of the solution of benzamide (internal standard, 100 mM in DMSO), 1 μL of the solution of sydnone (100 mM in DMSO) and 1.5 μL of the solution of BCN (100 mM in DMSO). The reaction mixture was injected in HPLC every 30 min and the conversion was followed by measuring the normalized sydnone peak area.
(§4) Second order reaction rate was determined by plotting ln([A]/[B])/([A]−[B]) versus time and analyzing by linear regression. Second order rate constant corresponds to the determined slope.

[2] = HPLC monitoring of the cycloaddition reaction with BCN in blood plasma; conditions: 100 μM sydnone, 150 μM BCN, after 1 hour
Description: Reactions of sydnone S1-2 with bicyclononyne BCN was carried out in blood plasma at 100 μM concentration of sydnone and 150 μM concentration of cyclooctyne BCN using the following procedure:
as §3, with “blood plasma were” for “phosphate buffered saline (PBS, 100 mM) was”, “added” for “added 87.5 μL of DMSO,”

[3] = Kinetic study of the coupling reaction of sydnones with cyclic alkyne TMTH in PBS/DMSO (HPLC); conditions: PBS/DMSO (9:1), 100 μM sydnone
Description: as §1, §2, §3, §4

## O=C(O)c1ccc(-[n+]2cc([O-])on2)cc1 [Sydnone S0-4, 3-(4-carboxyphenyl)-1,2,3λ^5-oxadiazol-3-ylium-5-olate, reference compound]
[1]
  K (BCN), second order kinetic constant: 0.059 ± 0.001 M⁻¹ s⁻¹

## O=C(O)c1ccc(-[n+]2noc([O-])c2Cl)cc1 [Sydnone S1-2, 3-(4-carboxyphenyl)-4-chloro-1,2,3λ^5-oxadiazol-3-ylium-5-olate]
[1]; K(S1-1)/K(S0-3), K(S1-2)/K(S0-4)
  ratio of K constant (BCN) to K constant of the corresponding sydnone not substituted in position 4: 27
[1]
  K (BCN), second order kinetic constant: 1.593 ± 0.034 M⁻¹ s⁻¹
[2]
  conversion of sydnone in reaction with BCN: almost complete reaction
[3]
  K (TMTH), second order kinetic constant: 322 M⁻¹ s⁻¹

## O=C(O)c1ccc(-[n+]2noc([O-])c2Br)cc1 [Sydnone S2-2, 4-bromo-3-(4-carboxyphenyl)-1,2,3λ^5-oxadiazol-3-ylium-5-olate]
[1]
  K (BCN), second order kinetic constant: 0.798 ± 0.065 M⁻¹ s⁻¹
[3]
  K (TMTH), second order kinetic constant: 101 M⁻¹ s⁻¹
